Experiment [1] addresses T1, human DLK (Homo sapiens, UniProt Q12852).
T1 sequence (Q12852 1-859): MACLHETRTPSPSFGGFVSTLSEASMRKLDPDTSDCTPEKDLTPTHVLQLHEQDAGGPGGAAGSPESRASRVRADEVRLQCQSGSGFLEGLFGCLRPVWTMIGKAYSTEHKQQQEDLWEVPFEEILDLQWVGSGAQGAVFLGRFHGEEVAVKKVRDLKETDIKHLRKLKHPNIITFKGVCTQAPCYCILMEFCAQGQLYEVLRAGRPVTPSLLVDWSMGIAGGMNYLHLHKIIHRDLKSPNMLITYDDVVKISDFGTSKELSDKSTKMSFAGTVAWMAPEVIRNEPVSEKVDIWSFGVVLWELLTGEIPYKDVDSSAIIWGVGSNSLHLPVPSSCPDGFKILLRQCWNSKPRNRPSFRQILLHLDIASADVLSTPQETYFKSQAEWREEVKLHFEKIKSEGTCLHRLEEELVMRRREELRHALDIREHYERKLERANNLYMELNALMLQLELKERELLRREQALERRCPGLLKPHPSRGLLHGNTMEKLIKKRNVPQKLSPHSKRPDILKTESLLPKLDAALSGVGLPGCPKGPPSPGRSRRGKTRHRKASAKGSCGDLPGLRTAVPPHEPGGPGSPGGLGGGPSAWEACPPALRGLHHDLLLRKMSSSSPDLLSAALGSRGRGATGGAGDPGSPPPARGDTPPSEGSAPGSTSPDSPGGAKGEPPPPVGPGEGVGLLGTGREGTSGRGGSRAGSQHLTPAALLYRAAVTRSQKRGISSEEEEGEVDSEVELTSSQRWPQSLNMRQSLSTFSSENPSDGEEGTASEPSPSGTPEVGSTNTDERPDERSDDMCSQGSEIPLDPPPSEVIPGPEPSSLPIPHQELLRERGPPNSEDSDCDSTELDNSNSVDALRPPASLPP
Put plainly: DLK Kd Determinations (KINOMEscan KdELECT, DiscoveRx). Set-up: full length of human DLK (amino acids 1-859); host or cells: transiently transfected HEK293 cells; unpurified extract. The settings on record: fusion protein of full length human DLK (amino acids 1-859) and NFkB DNA binding domain; qPCR readout; duplicate. The essentials: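 Competition binding of full-length human DLK (aa 1-859)-NFkB DBD fusion, DNA-tagged, from HEK293 extracts against an immobilized ligand; 1 h at room temperature, 0.9% DMSO. Bead-bound kinase was quantified by qPCR. Kd came from an 11-point 3-fold series (top 30,000 nM), in duplicate, with Hill slope fixed at −1.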
(In general: In qPCR the cycle at which signal appears reflects the starting amount.)

The target of experiment [2] is T1, human DLK. In words: Phospho-cJun Cellular Assay. It counts as cell-based. More on the design: expressed in transfected cells. The settings on record: HEK293 cells stably transfected with Dox-inducible human DLK; p-cJun (Ser63); 5 h compound incubation. In outline:
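HEK293 cells with doxycycline-induced human DLK (induced 20 h; uninduced cells as negative control) treated with compound for 5 h at 37 °C. Phospho-cJun (Ser63) measured in lysates with detection-antibody kit; IC50 from variable-slope dose-response fit.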

In the case of `COCCN1C[C@@H]2[C@H](C1)[C@H]2n1cc(-c2cnc(N)c(C(F)(F)F)c2)nc1CC(F)(F)F` [Example 121, 5-(1-((1R,5S,6s)-3-(2-methoxyethyl)-3-azabicyclo[3.1.0]hexan-6-yl)-2-(2,2,2-trifluoroethyl)-1H-imidazol-4-yl)-3-(trifluoromethyl)pyridin-2-amine], the Kd on human DLK [1] is 49 nM. At human DLK [2], this compound registered an IC50 of 1590 nM.

As to `CCC(CC)c1nc(-c2cnc(N)c(C(F)(F)F)c2)cn1[C@H]1[C@@H]2CN(CCF)C[C@@H]21` [Example 125, 5-(1-((1R,5S,6s)-3-(2-fluoroethyl)-3-azabicyclo[3.1.0]hexan-6-yl)-2-(pentan-3-yl)-1H-imidazol-4-yl)-3-(trifluoromethyl)pyridin-2-amine], at human DLK [1], the equilibrium dissociation constant (Kd) was 120 nM. The same compound came in with an IC50 against human DLK [2] of 1290 nM.

`CC(C)Cc1nc(-c2cnc(N)c(C(F)(F)F)c2)cn1[C@H]1[C@@H]2CN(CCF)C[C@@H]21` [Example 126, 5-(1-((1R,5S,6s)-3-(2-fluoroethyl)-3-azabicyclo[3.1.0]hexan-6-yl)-2-isobutyl-1H-imidazol-4-yl)-3-(trifluoromethyl)pyridin-2-amine] displayed a dissociation constant (Kd) on human DLK [1] of 34 nM. The IC50 against human DLK [2] worked out at 823 nM.

`CC(C)c1nc(-c2cnc(N)c(C(F)(F)F)c2)cn1[C@H]1[C@@H]2CC(N3CCCOCC3)C[C@@H]21` (stereo partly shown) [Example 130, 5-(1-(3-(1,4-oxazepan-4-yl)bicyclo[3.1.0]hexan-6-yl)-2-isopropyl-1H-imidazol-4-yl)-3-(trifluoromethyl)pyridin-2-amine]: the Kd on human DLK [1] was determined as 25 nM. The same compound had an IC50 at human DLK [2] of 1760 nM.

`CC(C)c1nc(-c2cnc(N)c(C(F)(F)F)c2)cn1[C@H]1[C@@H]2CC(N3CCOC[C@@H]3C)C[C@@H]21` (stereo partly drawn) [Example 131, 5-(2-isopropyl-1-(3-((S)-3-methylmorpholino)bicyclo[3.1.0]hexan-6-yl)-1H-imidazol-4-yl)-3-(trifluoromethyl)pyridin-2-amine] gave an equilibrium dissociation constant (Kd) on human DLK [1] of 34 nM. In addition, half-maximal inhibition at human DLK [2] (IC50) was put at 1390 nM.

Take `CC(C)c1nc(-c2cnc(N)c(C(F)(F)F)c2)cn1[C@H]1[C@@H]2CC(N3CCN(C)CC3)C[C@@H]21` (stereo partly shown) [Example 132, 5-(2-isopropyl-1-(3-(4-methylpiperazin-1-yl)bicyclo[3.1.0]hexan-6-yl)-1H-imidazol-4-yl)-3-(trifluoromethyl)pyridin-2-amine]: the Kd at human DLK [1] stood at 22 nM. The compound further came in with an IC50 at human DLK [2] of 909 nM.

At human DLK [1], `CN1CCN(C2C[C@@H]3[C@H](C2)[C@H]3n2cc(-c3cnc(N)c(OC(F)(F)F)c3)nc2C2CC2)CC1` (stereo partly shown) [Example 135, 5-(2-cyclopropyl-1-(3-(4-methylpiperazin-1-yl)bicyclo[3.1.0]hexan-6-yl)-1H-imidazol-4-yl)-3-(trifluoromethoxy)pyridin-2-amine] yielded a dissociation constant Kd of 17 nM. The compound further came in with a 50% inhibitory concentration (IC50) against human DLK [2] of 346 nM.

On to `Nc1ncc(-c2cn([C@H]3[C@@H]4CC(N5CCCOCC5)C[C@@H]43)c(C3CC3)n2)cc1OC(F)(F)F` (stereo partly shown) [Example 136, 5-(1-(3-(1,4-oxazepan-4-yl)bicyclo[3.1.0]hexan-6-yl)-2-cyclopropyl-1H-imidazol-4-yl)-3-(trifluoromethoxy)pyridin-2-amine], for which the Kd on human DLK [1] stood at 20 nM. The same compound had an IC50 at human DLK [2] of 662 nM.

The compound `CN1CCN(C2CC3C(C2)C3n2cc(-c3cnc(N)c(OC(F)F)c3)nc2C2CC2)CC1` (stereo not shown) [Example 137, 5-(2-cyclopropyl-1-(3-(4-methylpiperazin-1-yl)bicyclo[3.1.0]hexan-6-yl)-1H-imidazol-4-yl)-3-(difluoromethoxy)pyridin-2-amine] came in with a Kd at human DLK [1] of 22 nM. On human DLK [2], this compound yielded a half-maximal inhibitory concentration (IC50) of 710 nM.

For `CC(C)c1nc(-c2cnc(N)c(C(F)(F)F)c2)cn1[C@H]1[C@@H]2CC(N3CCCOCC3)C[C@@H]21` (stereo partly shown) [Example 142, 5-(1-(3-(1,4-oxazepan-4-yl)bicyclo[3.1.0]hexan-6-yl)-2-isopropyl-1H-imidazol-4-yl)-3-(trifluoromethyl)pyridin-2-amine], the Kd on human DLK [1] is 9.4 nM. Besides, the IC50 at human DLK [2] is 934 nM.

On human DLK [1], `CC(C)c1nc(-c2cnc(N)c(C(F)(F)F)c2)cn1[C@H]1[C@@H]2CC(N3CCOC[C@@H]3C)C[C@@H]21` (stereo partly drawn) [Example 143, 5-(2-isopropyl-1-(3-((S)-3-methylmorpholino)bicyclo[3.1.0]hexan-6-yl)-1H-imidazol-4-yl)-3-(trifluoromethyl)pyridin-2-amine] had an equilibrium dissociation constant (Kd) of 19 nM. Also, the IC50 on human DLK [2] came out at 1510 nM.

In turn, `CC(C)c1nc(-c2cnc(N)c(C(F)(F)F)c2)cn1[C@H]1[C@@H]2CC(N3CCN(C)CC3)C[C@@H]21` (stereo partly shown) [Example 144, 5-(2-isopropyl-1-(3-(4-methylpiperazin-1-yl)bicyclo[3.1.0]hexan-6-yl)-1H-imidazol-4-yl)-3-(trifluoromethyl)pyridin-2-amine] had a dissociation constant (Kd) on human DLK [1] of 38 nM. In addition, the IC50 against human DLK [2] is 859 nM.

As to `CC1COCCN1C1CC2C(C1)C2n1cc(-c2cnc(N)c(OC(F)(F)F)c2)nc1C1CC1` (stereo not shown) [Example 147, 5-(2-cyclopropyl-1-(3-(3-methylmorpholino)bicyclo[3.1.0]hexan-6-yl)-1H-imidazol-4-yl)-3-(trifluoromethoxy)pyridin-2-amine], binding on human DLK [1] was put at a Kd of 23 nM. Further, the IC50 at human DLK [2] stood at 893 nM.

At human DLK [1], `CC1COCCN1C1C[C@@H]2[C@H](C1)[C@H]2n1cc(-c2cnc(N)c(OC(F)(F)F)c2)nc1C1CC1` (stereo partly shown) [Example 148, 5-(2-cyclopropyl-1-(3-(3-methylmorpholino)bicyclo[3.1.0]hexan-6-yl)-1H-imidazol-4-yl)-3-(trifluoromethoxy)pyridin-2-amine] showed an equilibrium dissociation constant (Kd) of 22 nM. At human DLK [2], this compound came in with a half-inhibitory concentration (IC50) of 710 nM.

For `Nc1ncc(-c2cn([C@H]3[C@@H]4CC(N5CCCOCC5)C[C@@H]43)c(C3CC3)n2)cc1OC(F)(F)F` (stereo partly shown) [Example 149, 5-(1-(3-(1,4-oxazepan-4-yl)bicyclo[3.1.0]hexan-6-yl)-2-cyclopropyl-1H-imidazol-4-yl)-3-(trifluoromethoxy)pyridin-2-amine], the Kd on human DLK [1] was determined as 37 nM. This compound also registered an IC50 on human DLK [2] of 574 nM.

As for `CN1CCN(C2C[C@@H]3[C@H](C2)[C@H]3n2cc(-c3cnc(N)c(OC(F)F)c3)nc2C2CC2)CC1` (stereo partly shown) [Example 150, 5-(2-cyclopropyl-1-(3-(4-methylpiperazin-1-yl)bicyclo[3.1.0]hexan-6-yl)-1H-imidazol-4-yl)-3-(difluoromethoxy)pyridin-2-amine], binding at human DLK [1] was characterised by a dissociation constant (Kd) of 54 nM. Further, the half-maximal inhibitory concentration (IC50) against human DLK [2] came to 1090 nM.

In turn, `CC(C)Cc1nc(-c2cnc(N)c(OC(F)(F)F)c2)cn1[C@H]1[C@@H]2CC(N3CCN(C)CC3)C[C@@H]21` (stereo partly shown) [Example 158, 5-(2-isobutyl-1-(3-(4-methylpiperazin-1-yl)bicyclo[3.1.0]hexan-6-yl)-1H-imidazol-4-yl)-3-(trifluoromethoxy)pyridin-2-amine] yielded a dissociation constant (Kd) at human DLK [1] of 12 nM. Also, the IC50 at human DLK [2] came to 500 nM.

The term Kd denotes the concentration at which binding is half-saturated. The term IC50 denotes the concentration at which inhibition is half-maximal. High values mean lower potency, low ones higher potency.

The values above are taken from patent publication US20180057507A1, “INHIBITORS OF DUAL LEUCINE ZIPPER (DLK) KINASE FOR THE TREATMENT OF DISEASE” (Board of Regents, The University of Texas System, priority 2016, published 2018).
